Results as given in US20040029965A1, “Formulations for reducing or eliminating toxicity of enviromental hormones containing ursodeoxycholic acid” (priority 2000, published 2004).

Experiments:
Assay type in all cases: in vivo
C57B1/6J mice [1] = experiment: Changes in body weight of mice after a single subcutaneous injection of TCDD; conditions: for Weight (body weight): at sacrifice
Method: Male C57B1/6J mice of 5 weeks old having the average weight of 18-22 g which had been bred in CRJ (Charles River in Japan) were purchased and used in this example as experimental animals. Those mice were acclimated under the constant breeding condition, i.e. the temperature of 24±1° C., the humidity of 60±10% and the light and darkness cycle of 12 hours, for one week and thereafter, utilized in the experiment.
The Experimental animals were supplied with Purina powdered feed (purchased from Hae Eun Trade) and supplied with water ad libitum. All the animals were weighed twice a week during experimentation.
(§1) 2,3,7,8-tetrachlorodibenzo-p-dioxin (TCDD) dissolved in toluene (purity of 95% or more as a result of gas chromatography analysis), manufactured by Chem. Services Inc. in USA, was volatilized with nitrogen to obtain powder. The obtained powder was dissolved in a mixed solvent containing acetone and corn oil with a volume ratio of 1:6. The resulting solution each containing 110, 27.5 and 6.9 μg/kg of TCDD was subcutaneously injected to mice at a volume of 5 ml per body weight. […] The mice were supplied with the feed from 10 days before (pre-administration) to 60 days after administration of TCDD (post-administration).
The results are expressed as Mean±Standard Deviation values. For statistical analysis of the body weight, feed and water uptake, biochemical findings, hematological findings and the weight of organ in an acute toxicity test, verification was performed by one way analysis of variance (ANOVA) in case of equal distribution. In case significance was recognized in ANOVA, the Student's t-test was performed in the levels of p<0.05 and p<0.01.

C57B1/6J mice [2] = experiment: Johnsen's score of the testis tissue (level of spermatogenesis)
Method: as §1
(§2) Upon completion of the experiment for 60 days, the experimental animals were fasted for 24 hours and anesthetized with ether. Then, they were abdominally incised and blood was gathered from abdominal vena cava. They were sacrificed by the release of blood. Liver, kidneys, testes and epididymides were extracted and all the extracted organs were weighed. Only the testes were separately kept and observed under optical and electron microscopes. For biochemical finding test, serum was separated from blood with a centrifuge and the separated serum was analyzed with an automated blood biochemical analyzer, Dimension (Dupont, USA). Blood was put to another blood gathering bottle and then, analyzed with an automated blood cell analyzer, Celldyn (Abbott, USA).
The extracted testes were fixed in 10% neutralized formalin buffer for 24 hours and washed with the flowing water. It was subsequently dehydrated with ethanol and cleared with xylene and then, embedded with paraffin. It was sectioned with microtome (microm is HM 440E) to a thickness of 2-3 μm and then, double stained with hematoxylin and eosin to observe under an optical microscope.
For evaluation of the level of spermatogenesis, Johnsen's score was determined from 10 to 1 based on the presence or absence of principal cells arranged according to maturation of spermatogenesis. The basis of Johnsen's score in testes was the following:
10: Perfect spermatogenesis having many sperms, organization of embryonic epithelial cells with a constant thickness, and opened lumen
9: Despite many sperms, significant separation of embryonic epithelial cells from the basement membrane and disruption thereof, or loss of lumen
8: Presence of 5 to less than 10 sperms in the section
7: Many sperm cells without sperms
6: 5 to less than 10 sperm cells without sperms
5: Several or many spermatocytes without sperms and sperm cells
4: Less than 5 spermatocytes without sperms and sperm cells
3: Presence of only spermatogonia as reproductive cells
2: Presence of only Sertoli cells without any reproductive cells
1: No cells in the section of seminiferous tubules

C57B1/6J mice [3] = experiment: Electron microscopy of testes (cellular microstructures); conditions: TCDD 27.5 μg/kg + 0.5% by weight of UDCA; FIG. 10
Method: as §1
as §2, with “(Abbott, USA). […]” for “(Abbott, USA).”

C[C@H](CCC(=O)O)[C@H]1CC[C@H]2[C@@H]3[C@@H](O)C[C@@H]4C[C@H](O)CC[C@]4(C)[C@H]3CC[C@]12C [UDCA, 3α, 7β-dihydroxy-5β-cholanoic acid]
body weight (C57B1/6J mice [1]; TCDD 6.9 μg/kg + UDCA 0.125 wt %, 0 day): 19.77 ± 0.21
body weight (C57B1/6J mice [1]; TCDD 6.9 μg/kg + UDCA 0.125 wt %, 12 days): 21.95 ± 0.28
body weight (C57B1/6J mice [1]; TCDD 6.9 μg/kg + UDCA 0.125 wt %, 22 days): 23.16 ± 0.32
body weight (C57B1/6J mice [1]; TCDD 6.9 μg/kg + UDCA 0.125 wt %, 32 days): 24.15 ± 0.38
body weight (C57B1/6J mice [1]; TCDD 6.9 μg/kg + UDCA 0.125 wt %, 39 days): 25.21 ± 0.46
body weight (C57B1/6J mice [1]; TCDD 6.9 μg/kg + UDCA 0.125 wt %, 50 days): 26.62 ± 0.56
body weight (C57B1/6J mice [1]; TCDD 6.9 μg/kg + UDCA 0.125 wt %, 59 days): 27.06 ± 0.60
Weight (body weight) (C57B1/6J mice [1]; TCDD 6.9 μg/kg + UDCA 0.125 wt %): 24.12 ± 1.83 g
body weight (C57B1/6J mice [1]; TCDD 6.9 μg/kg + UDCA 0.25 wt %, 0 day): 20.13 ± 0.34
body weight (C57B1/6J mice [1]; TCDD 6.9 μg/kg + UDCA 0.25 wt %, 12 days): 22.18 ± 0.38
body weight (C57B1/6J mice [1]; TCDD 6.9 μg/kg + UDCA 0.25 wt %, 22 days): 23.81 ± 0.43
body weight (C57B1/6J mice [1]; TCDD 6.9 μg/kg + UDCA 0.25 wt %, 32 days): 24.21 ± 0.47
body weight (C57B1/6J mice [1]; TCDD 6.9 μg/kg + UDCA 0.25 wt %, 39 days): 25.69 ± 0.45
body weight (C57B1/6J mice [1]; TCDD 6.9 μg/kg + UDCA 0.25 wt %, 50 days): 27.15 ± 0.46
body weight (C57B1/6J mice [1]; TCDD 6.9 μg/kg + UDCA 0.25 wt %, 59 days): 27.74 ± 0.48
Weight (body weight) (C57B1/6J mice [1]; TCDD 6.9 μg/kg + UDCA 0.25 wt %): 24.72 ± 1.39 g
body weight (C57B1/6J mice [1]; TCDD 6.9 μg/kg + UDCA 0.5 wt %, 0 day): 19.97 ± 0.28
body weight (C57B1/6J mice [1]; TCDD 6.9 μg/kg + UDCA 0.5 wt %, 12 days): 21.81 ± 0.32
body weight (C57B1/6J mice [1]; TCDD 6.9 μg/kg + UDCA 0.5 wt %, 22 days): 23.26 ± 0.37
body weight (C57B1/6J mice [1]; TCDD 6.9 μg/kg + UDCA 0.5 wt %, 32 days): 24.28 ± 0.50
body weight (C57B1/6J mice [1]; TCDD 6.9 μg/kg + UDCA 0.5 wt %, 39 days): 25.22 ± 0.49
body weight (C57B1/6J mice [1]; TCDD 6.9 μg/kg + UDCA 0.5 wt %, 50 days): 27.15 ± 0.49
body weight (C57B1/6J mice [1]; TCDD 6.9 μg/kg + UDCA 0.5 wt %, 59 days): 27.06 ± 0.56
Weight (body weight) (C57B1/6J mice [1]; TCDD 6.9 μg/kg + UDCA 0.5 wt %): 24.19 ± 1.38 g
body weight (C57B1/6J mice [1]; TCDD 27.5 μg/kg + UDCA 0.125 wt %, 0 day): 19.80 ± 0.25
body weight (C57B1/6J mice [1]; TCDD 27.5 μg/kg + UDCA 0.125 wt %, 12 days): 22.04 ± 0.26
body weight (C57B1/6J mice [1]; TCDD 27.5 μg/kg + UDCA 0.125 wt %, 22 days): 23.59 ± 0.28
body weight (C57B1/6J mice [1]; TCDD 27.5 μg/kg + UDCA 0.125 wt %, 32 days): 24.17 ± 0.33
body weight (C57B1/6J mice [1]; TCDD 27.5 μg/kg + UDCA 0.125 wt %, 39 days): 25.48 ± 0.36
body weight (C57B1/6J mice [1]; TCDD 27.5 μg/kg + UDCA 0.125 wt %, 50 days): 26.63 ± 0.28
body weight (C57B1/6J mice [1]; TCDD 27.5 μg/kg + UDCA 0.125 wt %, 59 days): 26.93 ± 0.34
Weight (body weight) (C57B1/6J mice [1]; TCDD 27.5 μg/kg + UDCA 0.125 wt %): 24.58 ± 1.07 g
body weight (C57B1/6J mice [1]; TCDD 27.5 μg/kg + UDCA 0.25 wt %, 0 day): 19.96 ± 0.30
body weight (C57B1/6J mice [1]; TCDD 27.5 μg/kg + UDCA 0.25 wt %, 12 days): 22.22 ± 0.29
body weight (C57B1/6J mice [1]; TCDD 27.5 μg/kg + UDCA 0.25 wt %, 22 days): 23.56 ± 0.37
body weight (C57B1/6J mice [1]; TCDD 27.5 μg/kg + UDCA 0.25 wt %, 32 days): 24.34 ± 0.38
body weight (C57B1/6J mice [1]; TCDD 27.5 μg/kg + UDCA 0.25 wt %, 39 days): 25.38 ± 0.37
body weight (C57B1/6J mice [1]; TCDD 27.5 μg/kg + UDCA 0.25 wt %, 50 days): 26.94 ± 0.50
body weight (C57B1/6J mice [1]; TCDD 27.5 μg/kg + UDCA 0.25 wt %, 59 days): 27.27 ± 0.51
Weight (body weight) (C57B1/6J mice [1]; TCDD 27.5 μg/kg + UDCA 0.25 wt %): 24.62 ± 1.44 g
body weight (C57B1/6J mice [1]; TCDD 27.5 μg/kg + UDCA 0.5 wt %, 0 day): 19.08 ± 0.20
body weight (C57B1/6J mice [1]; TCDD 27.5 μg/kg + UDCA 0.5 wt %, 12 days): 21.09 ± 0.32
body weight (C57B1/6J mice [1]; TCDD 27.5 μg/kg + UDCA 0.5 wt %, 22 days): 22.52 ± 0.33
body weight (C57B1/6J mice [1]; TCDD 27.5 μg/kg + UDCA 0.5 wt %, 32 days): 23.33 ± 0.32
body weight (C57B1/6J mice [1]; TCDD 27.5 μg/kg + UDCA 0.5 wt %, 39 days): 24.07 ± 0.34
body weight (C57B1/6J mice [1]; TCDD 27.5 μg/kg + UDCA 0.5 wt %, 50 days): 25.31 ± 0.43
body weight (C57B1/6J mice [1]; TCDD 27.5 μg/kg + UDCA 0.5 wt %, 59 days): 24.52 ± 0.42
Weight (body weight) (C57B1/6J mice [1]; TCDD 27.5 μg/kg + UDCA 0.5 wt %): 22.15 ± 1.14 g
body weight (C57B1/6J mice [1]; TCDD 110.0 μg/kg + UDCA 0.125 wt %, 0 day): 19.48 ± 0.29
body weight (C57B1/6J mice [1]; TCDD 110.0 μg/kg + UDCA 0.125 wt %, 12 days): 19.40 ± 0.40
body weight (C57B1/6J mice [1]; TCDD 110.0 μg/kg + UDCA 0.125 wt %, 22 days): 18.44 ± 0.87
body weight (C57B1/6J mice [1]; TCDD 110.0 μg/kg + UDCA 0.125 wt %, 32 days): 12.61
Weight (body weight) (C57B1/6J mice [1]; TCDD 110.0 μg/kg + UDCA 0.125 wt %): 15.93 g
body weight (C57B1/6J mice [1]; TCDD 110.0 μg/kg + UDCA 0.25 wt %, 0 day): 19.65 ± 0.44
body weight (C57B1/6J mice [1]; TCDD 110.0 μg/kg + UDCA 0.25 wt %, 12 days): 20.64 ± 0.50
body weight (C57B1/6J mice [1]; TCDD 110.0 μg/kg + UDCA 0.25 wt %, 22 days): 19.69 ± 1.03
body weight (C57B1/6J mice [1]; TCDD 110.0 μg/kg + UDCA 0.25 wt %, 32 days): 18.78 ± 1.14
body weight (C57B1/6J mice [1]; TCDD 110.0 μg/kg + UDCA 0.25 wt %, 39 days): 14.26
body weight (C57B1/6J mice [1]; TCDD 110.0 μg/kg + UDCA 0.25 wt %, 50 days): 14.85
body weight (C57B1/6J mice [1]; TCDD 110.0 μg/kg + UDCA 0.25 wt %, 59 days): 17.10
Weight (body weight) (C57B1/6J mice [1]; TCDD 110.0 μg/kg + UDCA 0.25 wt %): 18.53 ± 3.79 g
body weight (C57B1/6J mice [1]; TCDD 110.0 μg/kg + UDCA 0.5 wt %, 0 day): 19.71 ± 0.14
body weight (C57B1/6J mice [1]; TCDD 110.0 μg/kg + UDCA 0.5 wt %, 12 days): 20.52 ± 0.32
body weight (C57B1/6J mice [1]; TCDD 110.0 μg/kg + UDCA 0.5 wt %, 22 days): 21.15 ± 0.82
body weight (C57B1/6J mice [1]; TCDD 110.0 μg/kg + UDCA 0.5 wt %, 32 days): 20.76 ± 1.04
body weight (C57B1/6J mice [1]; TCDD 110.0 μg/kg + UDCA 0.5 wt %, 39 days): 19.81 ± 1.37
body weight (C57B1/6J mice [1]; TCDD 110.0 μg/kg + UDCA 0.5 wt %, 50 days): 18.19 ± 1.80
body weight (C57B1/6J mice [1]; TCDD 110.0 μg/kg + UDCA 0.5 wt %, 59 days): 18.53 ± 1.59
Johnsen's score of the testis tissue (C57B1/6J mice [2]; TCDD 6.9 μg/kg + UDCA 0.125 wt % in feed): 8.7 ± 0.09
Johnsen's score of the testis tissue (C57B1/6J mice [2]; TCDD 6.9 μg/kg + UDCA 0.250 wt % in feed): 8.84 ± 0.10
Johnsen's score of the testis tissue (C57B1/6J mice [2]; TCDD 6.9 μg/kg + UDCA 0.500 wt % in feed): 9.10 ± 0.08
Johnsen's score of the testis tissue (C57B1/6J mice [2]; TCDD 27.5 μg/kg + UDCA 0.125 wt % in feed): 8.40 ± 0.10
Johnsen's score of the testis tissue (C57B1/6J mice [2]; TCDD 27.5 μg/kg + UDCA 0.250 wt % in feed): 8.42 ± 0.08
Johnsen's score of the testis tissue (C57B1/6J mice [2]; TCDD 27.5 μg/kg + UDCA 0.500 wt % in feed): 8.81 ± 0.07
heads of sperms, electron microphotograph (C57B1/6J mice [3]): Normal shapes of sperm heads were retained
